# Data from the supplement of paper PMC8671470.
# System: MOLM-13
# Experiment: cell viability (% survival relative to DMSO control, bortezomib = 0%); higher = less cytotoxic
# Conditions: 10000 nM; 72 h
# Method in brief: (§1)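 Percent survival figures are means of duplicate wells. They were obtained by CellTiter-Glo luminescence after 10 AML and 5 CML cell lines spent 72 h at 37 °C with 5% CO2 in 384-well plates with compounds at 1, 10, 100, 1000 or 10000 nM. Vehicle was set to 100% and a 10 µM positive control to 0%.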
row,SMILES,cell viability [%]
1,NC(=O)c1cccc(-c2cccc(OC(=O)NC3CCCCC3)c2)c1 [URB-597],117
2,O=C1O[C@H]([C@@H](O)CO)C(O)=C1O [Vitamin C (ascorbate)],107

# System: LAMA-84
# Experiment: as above
# Conditions: 1 nM; 72 h
# Method in brief: as §1
row,SMILES,cell viability [%]
1,O=C(O)C[C@@]1(O)C[C@@H](CCCCCCc2ccc(Cl)cc2Cl)OC1=O,99.6
2,O=C(NCCCCCCNC(=O)ONC1=CCCCC1)ONC1=CCCCC1,104
3,O=C(C1CC1)N1CC[C@@H](C=C2NNC(=O)N2c2ccc(-c3ccc4occc4c3)cc2)C1,98.5
4,CCCCCCCCCCCC(=O)c1c(O)c(C(=O)CCCCCCCCCCC)c(O)c(C2CC(c3ccc(O)cc3)Oc3cc(O)ccc32)c1O (stereo not given),105
5,NC(=O)c1cccc(-c2cccc(OC(=O)NC3CCCCC3)c2)c1 [URB-597],99.8
6,O=C1O[C@H]([C@@H](O)CO)C(O)=C1O [Vitamin C (ascorbate)],106

# Same assay, conditions: 10 nM; 72 h
row,SMILES,cell viability [%]
1,O=C(O)C[C@@]1(O)C[C@@H](CCCCCCc2ccc(Cl)cc2Cl)OC1=O,99.8
2,O=C(NCCCCCCNC(=O)ONC1=CCCCC1)ONC1=CCCCC1,103
3,O=C(C1CC1)N1CC[C@@H](C=C2NNC(=O)N2c2ccc(-c3ccc4occc4c3)cc2)C1,97.5
4,CCCCCCCCCCCC(=O)c1c(O)c(C(=O)CCCCCCCCCCC)c(O)c(C2CC(c3ccc(O)cc3)Oc3cc(O)ccc32)c1O (stereo not given),99.9
5,NC(=O)c1cccc(-c2cccc(OC(=O)NC3CCCCC3)c2)c1 [URB-597],96.9
6,O=C1O[C@H]([C@@H](O)CO)C(O)=C1O [Vitamin C (ascorbate)],106

# Same assay, conditions: 100 nM; 72 h
row,SMILES,cell viability [%]
1,O=C(O)C[C@@]1(O)C[C@@H](CCCCCCc2ccc(Cl)cc2Cl)OC1=O,92.7
2,O=C(NCCCCCCNC(=O)ONC1=CCCCC1)ONC1=CCCCC1,112
3,O=C(C1CC1)N1CC[C@@H](C=C2NNC(=O)N2c2ccc(-c3ccc4occc4c3)cc2)C1,88.7
4,CCCCCCCCCCCC(=O)c1c(O)c(C(=O)CCCCCCCCCCC)c(O)c(C2CC(c3ccc(O)cc3)Oc3cc(O)ccc32)c1O (stereo not given),114
5,NC(=O)c1cccc(-c2cccc(OC(=O)NC3CCCCC3)c2)c1 [URB-597],99.6
6,O=C1O[C@H]([C@@H](O)CO)C(O)=C1O [Vitamin C (ascorbate)],113

# Same assay, conditions: 1000 nM; 72 h
row,SMILES,cell viability [%]
1,O=C(O)C[C@@]1(O)C[C@@H](CCCCCCc2ccc(Cl)cc2Cl)OC1=O,97.3
2,O=C(NCCCCCCNC(=O)ONC1=CCCCC1)ONC1=CCCCC1,101
3,O=C(C1CC1)N1CC[C@@H](C=C2NNC(=O)N2c2ccc(-c3ccc4occc4c3)cc2)C1,82.8
4,CCCCCCCCCCCC(=O)c1c(O)c(C(=O)CCCCCCCCCCC)c(O)c(C2CC(c3ccc(O)cc3)Oc3cc(O)ccc32)c1O (stereo not given),103
5,NC(=O)c1cccc(-c2cccc(OC(=O)NC3CCCCC3)c2)c1 [URB-597],98.3
6,O=C1O[C@H]([C@@H](O)CO)C(O)=C1O [Vitamin C (ascorbate)],101

# Same assay, conditions: 10000 nM; 72 h
row,SMILES,cell viability [%]
1,O=C(O)C[C@@]1(O)C[C@@H](CCCCCCc2ccc(Cl)cc2Cl)OC1=O,96.7
2,O=C(NCCCCCCNC(=O)ONC1=CCCCC1)ONC1=CCCCC1,103
3,O=C(C1CC1)N1CC[C@@H](C=C2NNC(=O)N2c2ccc(-c3ccc4occc4c3)cc2)C1,72.4
4,CCCCCCCCCCCC(=O)c1c(O)c(C(=O)CCCCCCCCCCC)c(O)c(C2CC(c3ccc(O)cc3)Oc3cc(O)ccc32)c1O (stereo not given),99.1
5,NC(=O)c1cccc(-c2cccc(OC(=O)NC3CCCCC3)c2)c1 [URB-597],96.1
6,O=C1O[C@H]([C@@H](O)CO)C(O)=C1O [Vitamin C (ascorbate)],102

# System: HL-60
# Experiment: area under dose-response curve (viability, 1 nM-10 uM) (fraction (0-1)); higher = more sensitive
# Conditions: 72 h; co-treatment: AZD3965 100 nM
# Method in brief: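 HL-60 cells in RPMI 1640 with 10% FBS were rescreened against the full library on 384-well plates at five tenfold concentrations, 1–10,000 nM, in duplicate. Each screen was run with DMSO or 100 nM of one of three metabolic inhibitors, for 72 h at 37 °C, 5% CO2. Viability was read by CellTiter-Glo and normalised to DMSO and 10 μM proteasome-inhibitor wells. Where given, area under the curve came from four-parameter log-logistic fits (drc, PharmacoGx).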
row,SMILES,area under dose-response curve
1,O=C(O)C[C@@]1(O)C[C@@H](CCCCCCc2ccc(Cl)cc2Cl)OC1=O,< 0.0301
2,O=C(NCCCCCCNC(=O)ONC1=CCCCC1)ONC1=CCCCC1,< 0.0301

# Same assay, conditions: 72 h; co-treatment: DMSO vehicle
row,SMILES,area under dose-response curve
1,O=C(O)C[C@@]1(O)C[C@@H](CCCCCCc2ccc(Cl)cc2Cl)OC1=O,< 0.0301
2,O=C(NCCCCCCNC(=O)ONC1=CCCCC1)ONC1=CCCCC1,< 0.0301

# Same assay, conditions: 72 h; co-treatment: GSK2194069 100 nM
row,SMILES,area under dose-response curve
1,O=C(O)C[C@@]1(O)C[C@@H](CCCCCCc2ccc(Cl)cc2Cl)OC1=O,< 0.0301
2,O=C(NCCCCCCNC(=O)ONC1=CCCCC1)ONC1=CCCCC1,< 0.0301

# Same assay, conditions: 72 h; co-treatment: pictilisib 100 nM
row,SMILES,area under dose-response curve
1,O=C(O)C[C@@]1(O)C[C@@H](CCCCCCc2ccc(Cl)cc2Cl)OC1=O,< 0.0301
2,O=C(NCCCCCCNC(=O)ONC1=CCCCC1)ONC1=CCCCC1,< 0.0301

# System: BV-173
# Experiment: not given
# Conditions: 72 h
# Method in brief: (§2)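 Seeded in RPMI 1640 at densities within the linear growth range, fifteen myeloid leukaemia cell lines were dispensed into 384-well plates with acoustically pre-printed compounds spanning five tenfold doses from 1 to 10,000 nM, in duplicate. The plates were kept for 72 h at 37 °C in 5% CO2 before luminescent ATP viability was measured and normalised to vehicle and to a positive control at 10 µM. Curves were fitted with a four-parameter log-logistic model. The IC50 was taken from those curves.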
row,SMILES,IC50 (cell viability) [µM]
1,O=C(O)C[C@@]1(O)C[C@@H](CCCCCCc2ccc(Cl)cc2Cl)OC1=O,> 10
2,O=C(NCCCCCCNC(=O)ONC1=CCCCC1)ONC1=CCCCC1,> 10
3,O=C(C1CC1)N1CC[C@@H](C=C2NNC(=O)N2c2ccc(-c3ccc4occc4c3)cc2)C1,> 10
4,CCCCCCCCCCCC(=O)c1c(O)c(C(=O)CCCCCCCCCCC)c(O)c(C2CC(c3ccc(O)cc3)Oc3cc(O)ccc32)c1O (stereo not given),> 10
5,NC(=O)c1cccc(-c2cccc(OC(=O)NC3CCCCC3)c2)c1 [URB-597],> 10
6,O=C1O[C@H]([C@@H](O)CO)C(O)=C1O [Vitamin C (ascorbate)],> 10

# System: KG-1
# Experiment: not given
# Conditions: 72 h
# Method in brief: as §2
row,SMILES,IC50 (cell viability) [µM]
1,O=C(O)C[C@@]1(O)C[C@@H](CCCCCCc2ccc(Cl)cc2Cl)OC1=O,> 10
2,O=C(NCCCCCCNC(=O)ONC1=CCCCC1)ONC1=CCCCC1,> 10
3,O=C(C1CC1)N1CC[C@@H](C=C2NNC(=O)N2c2ccc(-c3ccc4occc4c3)cc2)C1,> 10
4,CCCCCCCCCCCC(=O)c1c(O)c(C(=O)CCCCCCCCCCC)c(O)c(C2CC(c3ccc(O)cc3)Oc3cc(O)ccc32)c1O (stereo not given),> 10
5,NC(=O)c1cccc(-c2cccc(OC(=O)NC3CCCCC3)c2)c1 [URB-597],> 10
6,O=C1O[C@H]([C@@H](O)CO)C(O)=C1O [Vitamin C (ascorbate)],> 10

# System: K-562
# Experiment: not given
# Conditions: 72 h
# Method in brief: as §2
row,SMILES,IC50 (cell viability) [µM]
1,O=C(O)C[C@@]1(O)C[C@@H](CCCCCCc2ccc(Cl)cc2Cl)OC1=O,> 10
2,O=C(NCCCCCCNC(=O)ONC1=CCCCC1)ONC1=CCCCC1,> 10
3,O=C(C1CC1)N1CC[C@@H](C=C2NNC(=O)N2c2ccc(-c3ccc4occc4c3)cc2)C1,> 10
4,CCCCCCCCCCCC(=O)c1c(O)c(C(=O)CCCCCCCCCCC)c(O)c(C2CC(c3ccc(O)cc3)Oc3cc(O)ccc32)c1O (stereo not given),> 10
5,NC(=O)c1cccc(-c2cccc(OC(=O)NC3CCCCC3)c2)c1 [URB-597],> 10
6,O=C1O[C@H]([C@@H](O)CO)C(O)=C1O [Vitamin C (ascorbate)],> 10

# System: KU-812
# Experiment: not given
# Conditions: 72 h
# Method in brief: as §2
row,SMILES,IC50 (cell viability) [µM]
1,O=C(O)C[C@@]1(O)C[C@@H](CCCCCCc2ccc(Cl)cc2Cl)OC1=O,> 10
2,O=C(NCCCCCCNC(=O)ONC1=CCCCC1)ONC1=CCCCC1,> 10
3,O=C(C1CC1)N1CC[C@@H](C=C2NNC(=O)N2c2ccc(-c3ccc4occc4c3)cc2)C1,> 10
4,CCCCCCCCCCCC(=O)c1c(O)c(C(=O)CCCCCCCCCCC)c(O)c(C2CC(c3ccc(O)cc3)Oc3cc(O)ccc32)c1O (stereo not given),> 10
5,NC(=O)c1cccc(-c2cccc(OC(=O)NC3CCCCC3)c2)c1 [URB-597],> 10
6,O=C1O[C@H]([C@@H](O)CO)C(O)=C1O [Vitamin C (ascorbate)],> 10

# System: KCL-22
# Experiment: not given
# Conditions: 72 h
# Method in brief: as §2
row,SMILES,IC50 (cell viability) [µM]
1,O=C(O)C[C@@]1(O)C[C@@H](CCCCCCc2ccc(Cl)cc2Cl)OC1=O,> 10
